Measured values: patent US8765152B2, “Pharmaceutical or neutraceutical formulation” (Evonik Roehm GmbH, priority 2010, dated 2014)
Blank lines part the entries; values can stand above or below the molecule they belong to.

Assays:
Pancreatin = assay: In-vitro pancreatic enzyme inhibition test, degradation of desmopressin acetate by pancreatin (Example 14); assay type: biochemical; conditions: for desmopressin acetate remaining in presence of pancreatin: control solutions (positive control 1 mg/ml BBI final)
Method: In-Vitro Pancreatic Enzyme Inhibition Test of the Preparations of Examples 1, 4 and 5
Inhibition experiments were performed using a new study design considering the dissolution of the pellets.
80 mg of each formulation were stirred in 10 ml of HBSS pH 5.8 at the lowest stirring speed available. The stirring was stopped after 30 min and the suspensions allowed to settle down before an aliquot (2 ml) was drawn and mixed with 2 mL of a solution containing 80 μg·ml^−1 of Desmopressin acetate in HBSS buffer pH 6.5. The pH of the solutions was measured but not adjusted.
As a negative control 2 ml of HBSS buffer were mixed with 2 ml of a solution containing 80 μg·ml^−1 of Desmopressin acetate in HBSS buffer pH 6.5. The pH of the solutions was measured but not adjusted.
As a positive control a solution containing 4 mg of BBI per ml in HBSS was used. 2 ml of the solution were mixed with 2 ml of a solution containing 80 μg·ml^−1 of Desmopressin acetate in HBSS buffer pH 6.5. The pH of the solutions was measured but not adjusted.
200 μL of the prepared solutions were mixed with 200 μl of a Pancreatin solution (20 mg·ml^−1) and incubated for 1, 2 and 3 h at 37° C. Each experiment was performed in triplicate (three individually prepared solutions).
(Final concentrations in the positive control: 1 mg/ml BBI, 20 μg/ml desmopressin actuate and 10 mg/ml pancreatin)
For the 100% value 80 mg pellets were stirred in 10 ml HBSS pH 5.8 for 30 min and homogenized using an ultraturrax. The suspension was stirred for further 15 minutes and allowed to settle down.
The supernatant was collected and further diluted with Desmopressin acetate in HBSS buffer pH 6.5 as described above. The pH of the solutions was measured but not adjusted.
For the starting values (t0) the mixture was directly added to 400 μl of acetonitrile and diluted with 1200 μL of HBSS buffer pH 6.5. The solution were analysed by HPLC using a RP-18-column as a stationary phase and a water/acetonitrile-mixture (80:20) as eluent phase at a wavelength of 220 nm.

Caco-2-cell monolayer [1] = assay: TEER, cationic penetration promotor/anionic active ingredient mixtures (Example 18); assay type: cell-based
Method: TEER-Testing was performed analogous to example 12.
The following mixtures in HBSS-buffers were tested
Desmopressin acetate=Desmo,
EUDRAGIT® E Carbonate=E (s. description: carbonated amino(meth)acrylate copolymer)
Bowman Birk Inhibitor=BBI
Heparin: Low molecular weight heparin (LMW-Heparine); Fraxiparin™ (Nadroparin calcium); 0.6 ml ready to use syringe for subcutaneous injection (5700 IU anti-Xa/mg); Ch.B.: 3394-1; Glaxo Smith Kline

Caco-2-cell monolayer [2] = assay: TEER, pure penetration promotor, Caco-2 cell monolayer (Example 17); assay type: cell-based; conditions: positive control 0.1%
Method: The penetration promoter in the sense of the present invention may be defined by reducing the initial TEER-value of the buffer solution without penetration promotor (100%) to 50% or less, preferably 40% or less, preferably 30% or less, preferably 20% or less in the presence of the penetration promotor at a concentration of 1 mg/ml after 60 min measured in a Caco-2-cell monolayer culture as transport barrier.
TEER-Testing was performed analogous to example 12. EUDRAGIT® E acetate=EUDRAGIT® E dissolved in water by addition of acetic acid until clear solution was obtained; EUDRAGIT® E PO base=dispersion of EUDRAGIT® E PO (powder form of EUDRAGIT® E) in water (not dissolved); chitosan acetate=chitosan dissolved in water by addition of acetic acid until clear solution was obtained.

[3] = orally ingested; cited from earlier work
[4] = listed as buffer (baseline), mean of n = 3

desmopressin acetate remaining in presence of pancreatin (Pancreatin; 0 min): 100.00%
desmopressin acetate remaining in presence of pancreatin (Pancreatin; 60 min): 61.79%
desmopressin acetate remaining in presence of pancreatin (Pancreatin; 120 min): 50.51%
desmopressin acetate remaining in presence of pancreatin (Pancreatin; 180 min): 33.54%
recovery of desmopressin (Pancreatin; in the absence of the BBI, time not stated): more than 60%
Molecule: NC(=O)CC[C@@H]1NC(=O)[C@H](Cc2ccccc2)NC(=O)[C@H](Cc2ccc(O)cc2)NC(=O)CCSSC[C@@H](C(=O)N2CCC[C@H]2C(=O)N[C@H](CCCN=C(N)N)C(=O)NCC(N)=O)NC(=O)[C@H](CC(N)=O)NC1=O [Desmopressin acetate]

Molecule: NC(=O)CC[C@@H]1NC(=O)[C@H](Cc2ccccc2)NC(=O)[C@H](Cc2ccc(O)cc2)NC(=O)CCSSC[C@@H](C(=O)N2CCC[C@H]2C(=O)N[C@H](CCCN=C(N)N)C(=O)NCC(N)=O)NC(=O)[C@H](CC(N)=O)NC1=O [Example 18c, Desmopressin acetate]
TEER in % of TEER in Medium during the test (Caco-2-cell monolayer [1]; 0 min): 119%
TEER in % of TEER in Medium during the test (Caco-2-cell monolayer [1]; 15 min): 111%
TEER in % of TEER in Medium during the test (Caco-2-cell monolayer [1]; 30 min): 115%
TEER in % of TEER in Medium during the test (Caco-2-cell monolayer [1]; 60 min): 111%
TEER in % of TEER in Medium during the test (Caco-2-cell monolayer [1]; 90 min): 118%
TEER in % of TEER in Medium during the test (Caco-2-cell monolayer [1]; 120 min): 119%
TEER in % of TEER in Medium during the test (Caco-2-cell monolayer [1]; 240 min): 109%
TEER in % of TEER in Medium during the test (Caco-2-cell monolayer [1]; [4]): 123%

Molecule: CCCCCCCCCCCCOS(=O)(=O)[O-].[Na+] [Example 18h, Sodiumdodecylsufate]
TEER in % of TEER in Medium during the test (Caco-2-cell monolayer [1]; 0 min): 22%
TEER in % of TEER in Medium during the test (Caco-2-cell monolayer [1]; 15 min): 16%
TEER in % of TEER in Medium during the test (Caco-2-cell monolayer [1]; 30 min): 16%
TEER in % of TEER in Medium during the test (Caco-2-cell monolayer [1]; 60 min): 12%
TEER in % of TEER in Medium during the test (Caco-2-cell monolayer [1]; 90 min): 16%
TEER in % of TEER in Medium during the test (Caco-2-cell monolayer [1]; 120 min): 12%
TEER in % of TEER in Medium during the test (Caco-2-cell monolayer [1]; 240 min): 13%
TEER in % of TEER in Medium during the test (Caco-2-cell monolayer [1]; [4]): 123%
Mean-TEER (Caco-2-cell monolayer [2]; 5 min): 12%
Mean-TEER (Caco-2-cell monolayer [2]; 60 min): 4%
Mean-TEER (Caco-2-cell monolayer [2]; 120 min): 10%
Mean-TEER (Caco-2-cell monolayer [2]; 180 min): 12%
Mean-TEER (Caco-2-cell monolayer [2]; 240 min): 15%
Mean-TEER (Caco-2-cell monolayer [2]; HBSS (0 min)): 100%

Molecule: Nadroparin calcium [Example 18d]
TEER in % of TEER in Medium during the test (Caco-2-cell monolayer [1]; 0 min): 110%
TEER in % of TEER in Medium during the test (Caco-2-cell monolayer [1]; 15 min): 102%
TEER in % of TEER in Medium during the test (Caco-2-cell monolayer [1]; 30 min): 106%
TEER in % of TEER in Medium during the test (Caco-2-cell monolayer [1]; 60 min): 105%
TEER in % of TEER in Medium during the test (Caco-2-cell monolayer [1]; 90 min): 112%
TEER in % of TEER in Medium during the test (Caco-2-cell monolayer [1]; 120 min): 111%
TEER in % of TEER in Medium during the test (Caco-2-cell monolayer [1]; 240 min): 104%
TEER in % of TEER in Medium during the test (Caco-2-cell monolayer [1]; [4]): 118%

desmopressin acetate remaining in presence of pancreatin (Pancreatin; 0 min): 100.00%
desmopressin acetate remaining in presence of pancreatin (Pancreatin; 60 min): 98.82%
desmopressin acetate remaining in presence of pancreatin (Pancreatin; 120 min): 94.48%
desmopressin acetate remaining in presence of pancreatin (Pancreatin; 180 min): 85.25%
inhibition of degradation of desmopressin acetate by pancreatin (in words) (Pancreatin; n=3): remarkably reduce the degradation
B1: BBI: Bowman-Birk inhibitor from soy bean source (Sigma Aldrich); trypsin and chymotrypsin inhibitor (protein, UniProt P01055 40-110, looked up)
Bowman-Birk type proteinase …: DDESSKPCCDQCACTKSNPPQCRCSDMRLNSCHSACKSCICALSYPAQCFCVDITDFCYEPCKPSEDDKEN
ingested bowman birk inhibitor absorbed in to the bloodstream [3]: Approximately 50%
